Test results published in patent publication US20050159599A1, “Cyclic compound, process for producing the same, and pest control agent” (priority 2002, published 2005).

test system: Spodoptera litura; assay: Insecticidal effect for Spodoptera litura by spraying treatment to host crop (Test Example 2); assay type: in vivo; conditions: 100 ppm; sprayed on soybean; third-instar larvae of Spodoptera litura; fifth day after
Method: Insecticidal Effect for Spodoptera litura by Spraying Treatment to Host Crop
A pesticidal solution, which was prepared by dissolving 5 mg of test compound (represented by the compound Nos. in the above Examples) in 0.5-ml of acetone containing Tween 20 (trade name) and then diluting it to the prescribed concentration (100 ppm) with Dain (trade name, sticker) water diluted 5000-fold, was sprayed on a soybean whose primary leaves had developed completely with spray gun in the amounts wherein the pesticidal solution dripped. After drying the pesticidal solution, two primary leaves were cut off. The leaves were put into an ice cream cup (180 ml), and ten third-instar larvae of Spodoptera litura were set free therein. The cup was left in a temperature-controlled breeding room (25° C.). On the fifth day after, the number of surviving Spodoptera litura was examined. The rate of dead pests was calculated by the following formula. rate of dead pests (%)=(number of dead pests/number of test pests)×100

| SMILES | rate of dead pests (%) |
| --- | --- |
| C[S+]([O-])c1cc(F)c(N2COCN(C(=O)c3c(F)cccc3F)C2=O)c(F)c1 (centres unmarked) [I-32] | 100% |
| O=C(c1c(F)cccc1F)N1COCN(c2ccc(SCC=C(Cl)Cl)cc2F)C1=O [I-37] | 100% |
| O=C(c1c(F)cccc1F)N1COCN(CC(F)(F)F)C1=O [I-40] | 100% |
| CCSc1ccc(N2COCN(C(=O)c3c(F)cccc3F)C2=O)c(F)c1 [I-47] | 100% |
| CC(C)Sc1ccc(N2COCN(C(=O)c3c(F)cccc3F)C2=O)c(F)c1 [I-53] | 100% |
| C=CCSc1ccc(N2COCN(C(=O)c3c(F)cccc3F)C2=O)c(F)c1 [I-59] | 100% |
| C#CCSc1ccc(N2COCN(C(=O)c3c(F)cccc3F)C2=O)c(F)c1 [I-62] | 100% |
| Cc1cc(SC(F)(F)C(F)(F)C(F)(F)F)c(Cl)cc1N1COCN(C(=O)c2c(F)cccc2Cl)C1=O [I-329] | 100% |
| Cc1cc([S+]([O-])C(F)(F)C(F)(F)C(F)(F)F)c(Cl)cc1N1COCN(C(=O)c2c(F)cccc2Cl)C1=O (centres unmarked) [I-330] | 100% |
| O=C(c1c(Cl)cccc1Cl)N1COCN(c2ccc(SC(F)F)cc2F)C1=O [I-395] | 100% |
| O=C(c1c(F)cccc1F)N1CN(Cc2ccccc2)CN(c2ccc(Cl)cc2)C1=O [III-4] | 100% |
| CC(c1ccccc1)N1CN(C(=O)c2c(F)cccc2F)C(=O)N(c2ccc(Cl)cc2)C1 (centres unmarked) [III-14] | 100% |
| O=C(c1c(F)cccc1F)N1CN(Cc2ccccc2)CN(c2ccc(Oc3ccc(C(F)(F)F)cc3Cl)cc2F)C1=O [III-29] | 100% |
| O=C(c1c(F)cccc1F)N1CN(c2ccccc2)CN(c2ccc(Oc3ccc(C(F)(F)F)cc3Cl)cc2F)C1=O [III-30] | 100% |
| O=C(c1c(F)cccc1F)N1CN(C(=O)C(F)(F)F)CN(c2ccc(Oc3ccc(C(F)(F)F)cc3Cl)cc2F)C1=O [III-32] | 100% |
| O=C(c1c(F)cccc1F)N1CN(C2CC2)CN(c2ccc(Oc3ccc(C(F)(F)F)cc3Cl)cc2F)C1=O [III-36] | 100% |
| CN1CN(C(=O)c2c(F)cccc2F)C(=O)N(c2cc(Cl)c(F)c(Cl)c2F)C1 [III-51] | 100% |
| CC(C)N1CN(C(=O)c2c(F)cccc2F)C(=O)N(c2cc(Cl)c(F)c(Cl)c2F)C1 [III-52] | 100% |
| O=C(c1c(F)cccc1F)N1CN(C2CC2)CN(c2cc(Cl)c(F)c(Cl)c2F)C1=O [III-53] | 100% |
| CN1CN(C(=O)c2c(F)cccc2F)C(=O)N(c2cc(Cl)c(OC(F)(F)C(F)C(F)(F)F)cc2Cl)C1 (centres unmarked) [III-69] | 100% |
| CN1CN(C(=O)c2c(F)cccc2F)C(=O)N(c2ccc(SC(F)(F)C(F)Cl)cc2F)C1 (centres unmarked) [III-76] | 100% |
| CS(=O)(=O)N1CN(C(=O)c2c(F)cccc2F)C(=O)N(c2ccc(SC(F)F)cc2F)C1 [III-150] | 100% |
| CC(=O)N1CN(C(=O)c2c(F)cccc2F)C(=O)N(c2ccc(SC(F)(F)F)cc2F)C1 [III-161, 1-(2,6-difluorobenzoyl)-3-[2-fluoro-4-(trifluoromethylthio)phenyl]-5-aceyltetrahydro-1,3,5-triazin-2(1H)-one] | 100% |
| CC(=O)N1CN(C(=O)c2c(F)cccc2F)C(=O)N(c2ccc([S+]([O-])C(F)(F)F)cc2F)C1 (centres unmarked) [III-165] | 100% |
| CS(=O)(=O)N1CN(C(=O)c2c(F)cccc2F)C(=O)N(c2ccc([S+]([O-])C(F)(F)F)cc2F)C1 (centres unmarked) [III-166] | 100% |
| Cc1cc(SC(F)(F)F)ccc1N1CN(C)CN(C(=O)c2c(F)cccc2Cl)C1=O [III-455] | 100% |

same assay, conditions: 120 h; 100 ppm; sprayed on soybean; third-instar larvae of Spodoptera litura; fifth day after; read-out: rate of dead pests (%)

| SMILES | pest or weed control at 100 ppm |
| --- | --- |
| O=C(c1c(F)cccc1F)N1COCN(c2ccc(Cl)cc2)C1=O [I-1, 3-(4-chlorophenyl)-5-(2,6-difluorobenzoyl)tetrahydro-4H-1,3,5-oxadiazin-4-one] | 100% |
| CN1CN(C(=O)c2c(F)cccc2F)C(=O)N(c2ccc(Cl)cc2)C1 [III-1, 1-(4-chlorophenyl)-3-(2,6-difluorobenzoyl)-5-methyltetrahydro-1,3,5-triazin-2(1H)-one] | 100% |
| C=CCN1CN(C(=O)c2c(F)cccc2F)C(=O)N(c2ccc(Cl)cc2)C1 [III-5, 5-allyl-1-(4-chlorophenyl)-3-(2,6-difluorobenzoyl)tetrahydro-1,3,5-triazin-2 (1H)-one] | 100% |
| O=C(c1c(F)cccc1F)N1CNCN(c2ccc(Cl)cc2)C1=O [III-6, 1-(4-chlorophenyl)-3-(2,6-difluorobenzoyl)tetrahydro-1,3,5-triazin-2(1H)-one] | 100% |
| O=C(OCc1ccccc1)N1CN(C(=O)c2c(F)cccc2F)C(=O)N(c2ccc(Cl)cc2)C1 [III-7, 5-benzyloxycarbonyl-1-(4-chlorophenyl)-3-(2,6-difluorobenzoyl)tetrahydro-1,3,5-triazin-2 (1H)-one] | 100% |
| O=C(OCc1ccccc1)N1CN(C(=O)c2c(F)cccc2F)C(=O)N(c2ccc(Oc3ccc(C(F)(F)F)cc3Cl)cc2F)C1 [III-22, 5-benzyloxycarbonyl-1-[4-(2-chloro-4-trifluoromethylphenoxy)-2-fluorophenyl]-3-(2,6-difluorobenzoyl)tetrahydro-1,3,5-triazin-2(1H)-one] | 100% |
| CS(=O)(=O)N1CN(C(=O)c2c(F)cccc2F)C(=O)N(c2ccc(SC(F)(F)F)cc2F)C1 [III-162, 1-(2,6-difluorobenzoyl)-3-[2-fluoro-4-(trifluoromethylthio)phenyl]-5-methylsulfonyltetrahydro-1,3,5-triazin-2(1H)-one] | 100% |

test system: Spodoptera litura; assay: Insecticidal effect for Spodoptera litura by immersion treatment of host crop root (Test Example 4); assay type: in vivo; conditions: 5 ppm (so in the source); soybean root immersion 5 days; second-instar larvae of Spodoptera litura; fifth day after
Method: Insecticidal Effect for Spodoptera litura by Immersion Treatment of Host Crop Root Roots of primary leaves developing stage soybean was washed with tap water to remove soil, and then immersed in a pesticidal solution which was prepared by dissolving 5 mg of test compound (represented by the compound Nos. in the above Examples) in 0.5 ml of acetone containing Tween 20 ([…]) with ion-exchange water, and which was filled in a light-shielded Erlenmeyer flask (100 ml). On the fifth day after immersion of root, two primary leaves were cut off, and the leaves were put into an ice cream cup (180 ml). Ten second-instar larvae of Spodoptera litura were set free therein, and the cup was left in a temperature-controlled breeding room (25° C.). On the fifth day after, the number of surviving Spodoptera litura was examined. The rate of dead pests was calculated by the following formula. rate of dead pests (%)=(number of dead pests/number of test pests)×100

| SMILES | rate of dead pests (%) |
| --- | --- |
| C#CCSc1ccc(N2COCN(C(=O)c3c(F)cccc3F)C2=O)c(F)c1 [I-62] | 100% |

same assay, conditions: 25 ppm; soybean root immersion 5 days; second-instar larvae of Spodoptera litura; fifth day after

| SMILES | rate of dead pests (%) |
| --- | --- |
| C[S+]([O-])c1cc(F)c(N2COCN(C(=O)c3c(F)cccc3F)C2=O)c(F)c1 (centres unmarked) [I-32] | 90% |
| O=C(c1c(F)cccc1F)N1COCN(c2ccc(SCC=C(Cl)Cl)cc2F)C1=O [I-37] | 100% |
| O=C(c1c(F)cccc1F)N1COCN(CC(F)(F)F)C1=O [I-40] | 100% |
| CCSc1ccc(N2COCN(C(=O)c3c(F)cccc3F)C2=O)c(F)c1 [I-47] | 100% |
| CC[S+]([O-])c1ccc(N2COCN(C(=O)c3c(F)cccc3F)C2=O)c(F)c1 (centres unmarked) [I-48] | 100% |
| CCCSc1ccc(N2COCN(C(=O)c3c(F)cccc3F)C2=O)c(F)c1 [I-50] | 100% |
| CC(C)Sc1ccc(N2COCN(C(=O)c3c(F)cccc3F)C2=O)c(F)c1 [I-53] | 100% |
| C=CCSc1ccc(N2COCN(C(=O)c3c(F)cccc3F)C2=O)c(F)c1 [I-59] | 100% |
| O=C(c1c(F)cccc1Cl)N1COCN(c2ccc(SC(F)(F)F)cc2Cl)C1=O [I-251] | 90% |
| O=C(c1c(Cl)cccc1Cl)N1COCN(c2ccc([S+]([O-])C(F)F)cc2F)C1=O (centres unmarked) [I-396] | 100% |
| O=C(c1c(F)cccc1F)N1CSCN(CC(F)(F)F)C1=O [II-64] | 95% |
| COC(=O)C(=O)N1CN(C(=O)c2c(F)cccc2F)C(=O)N(c2ccc(Cl)cc2)C1 [III-15] | 95% |
| CN1CN(CC(F)(F)F)C(=O)N(C(=O)c2c(F)cccc2F)C1 [III-144] | 100% |

same assay, conditions: 120 h; 25 ppm; soybean root immersion 5 days; second-instar larvae of Spodoptera litura; fifth day after; read-out: rate of dead pests (%)

| SMILES | pest or weed control at 25 ppm |
| --- | --- |
| O=C(c1c(F)cccc1F)N1COCN(c2ccc(Cl)cc2)C1=O [I-1, 3-(4-chlorophenyl)-5-(2,6-difluorobenzoyl)tetrahydro-4H-1,3,5-oxadiazin-4-one] | 100% |
| CC(=O)N1CN(C(=O)c2c(F)cccc2F)C(=O)N(c2ccc(Cl)cc2)C1 [III-9, 5-acetyl-1-(4-chlorophenyl)-3-(2,6-difluorobenzoyl)tetrahydro-1,3,5-triazin-2(1H)-one] | 95% |
| O=C(c1c(F)cccc1F)N1C=NCN(c2cc(Cl)c(F)c(Cl)c2F)C1=O [IV-4, 3-(3,5-dichloro-2,4-difluorophenyl)-1-(2,6-difluorobenzoyl)-3,4-dihydro-1,3,5-triazin-2(1H)-one] | 100% |
